ChEMBL document CHEMBL1641539 (Bioorg Med Chem Lett, 2011)

How the values were obtained:
[1] = molecular target: Tyrosine-protein kinase FRK (Homo sapiens) (UniProt P42685); experiment: Inhibition of human PTK5 at 10 uM after 60 mins by TR-FRET assay; values are per cent of control
[2] = molecular target: Tyrosine-protein kinase CSK (Homo sapiens) (UniProt P41240); experiment: Inhibition of human CSK at 10 uM after 60 mins by TR-FRET assay; values are per cent of control
[3] = molecular target: Serine/threonine-protein kinase NLK (Homo sapiens) (UniProt Q9UBE8); experiment: Inhibition of human NLK at 10 uM after 60 mins by TR-FRET assay; values are per cent of control
Sequence of Serine/threonine-protein kinase NLK (Homo sapiens) (Q9UBE8 whole entry): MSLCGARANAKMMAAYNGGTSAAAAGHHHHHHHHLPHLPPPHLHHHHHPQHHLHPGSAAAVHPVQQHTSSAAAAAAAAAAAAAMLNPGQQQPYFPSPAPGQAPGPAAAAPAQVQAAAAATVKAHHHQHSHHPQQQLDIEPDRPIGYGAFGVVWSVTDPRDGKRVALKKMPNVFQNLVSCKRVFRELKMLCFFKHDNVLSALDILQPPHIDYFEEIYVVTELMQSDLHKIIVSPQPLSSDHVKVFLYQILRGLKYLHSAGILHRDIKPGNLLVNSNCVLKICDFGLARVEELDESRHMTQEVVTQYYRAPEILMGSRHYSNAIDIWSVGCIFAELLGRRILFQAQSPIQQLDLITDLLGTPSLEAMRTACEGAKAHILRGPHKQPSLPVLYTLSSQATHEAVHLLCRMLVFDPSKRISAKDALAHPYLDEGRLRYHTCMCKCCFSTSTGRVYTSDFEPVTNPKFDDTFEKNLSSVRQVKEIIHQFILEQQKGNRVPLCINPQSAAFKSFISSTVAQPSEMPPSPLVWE

Rattus norvegicus = species on record: Rattus norvegicus; experiment: Inhibition of rat CaMK2 at 10 uM after 60 mins by TR-FRET assay; values are per cent of control
[4] = molecular target: G protein-coupled receptor kinase 5 (Homo sapiens) (UniProt P34947); experiment: Inhibition of human GRK5 at 10 uM after 60 mins by TR-FRET assay; values are per cent of control
[5] = molecular target: Cytoplasmic tyrosine-protein kinase BMX (Homo sapiens) (UniProt P51813); experiment: Inhibition of human Bmx at 10 uM after 60 mins by TR-FRET assay; values are per cent of control
Sequence of Cytoplasmic tyrosine-protein kinase BMX (Homo sapiens) (P51813 whole entry): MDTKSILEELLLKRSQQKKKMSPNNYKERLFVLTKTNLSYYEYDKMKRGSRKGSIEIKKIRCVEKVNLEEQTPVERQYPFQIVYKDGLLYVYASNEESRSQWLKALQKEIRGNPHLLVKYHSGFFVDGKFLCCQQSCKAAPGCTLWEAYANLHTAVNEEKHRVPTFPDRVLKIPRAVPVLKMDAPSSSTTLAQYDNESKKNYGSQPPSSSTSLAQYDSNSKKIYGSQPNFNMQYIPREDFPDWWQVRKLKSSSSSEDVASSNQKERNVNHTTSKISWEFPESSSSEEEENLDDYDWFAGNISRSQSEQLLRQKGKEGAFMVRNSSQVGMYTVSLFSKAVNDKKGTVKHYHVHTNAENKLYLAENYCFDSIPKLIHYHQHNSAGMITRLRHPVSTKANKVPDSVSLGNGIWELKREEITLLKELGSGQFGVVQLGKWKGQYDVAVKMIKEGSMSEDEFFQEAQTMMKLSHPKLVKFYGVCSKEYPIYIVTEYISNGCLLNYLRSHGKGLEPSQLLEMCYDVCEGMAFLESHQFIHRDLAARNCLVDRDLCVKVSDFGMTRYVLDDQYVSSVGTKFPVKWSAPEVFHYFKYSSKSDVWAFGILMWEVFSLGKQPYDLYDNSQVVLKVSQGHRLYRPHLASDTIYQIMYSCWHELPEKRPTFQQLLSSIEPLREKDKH

[6] = molecular target: Epidermal growth factor receptor (Homo sapiens) (UniProt P00533); experiment: Inhibition of human EGFR at 10 uM after 60 mins by TR-FRET assay; details: values are per cent of control
[7] = molecular target: Discoidin domain-containing receptor 2 (Homo sapiens) (UniProt Q16832); experiment: Inhibition of human DDR2 at 10 uM after 60 mins by TR-FRET assay; values are per cent of control
[8] = molecular target: Dual specificity mitogen-activated protein kinase kinase 4 (Mus musculus) (UniProt P47809); experiment: Inhibition of mouse MKK4 at 10 uM after 60 mins by TR-FRET assay; values are per cent of control
Sequence of Dual specificity mitogen-activated protein kinase kinase 4 (Mus musculus) (P47809 whole entry): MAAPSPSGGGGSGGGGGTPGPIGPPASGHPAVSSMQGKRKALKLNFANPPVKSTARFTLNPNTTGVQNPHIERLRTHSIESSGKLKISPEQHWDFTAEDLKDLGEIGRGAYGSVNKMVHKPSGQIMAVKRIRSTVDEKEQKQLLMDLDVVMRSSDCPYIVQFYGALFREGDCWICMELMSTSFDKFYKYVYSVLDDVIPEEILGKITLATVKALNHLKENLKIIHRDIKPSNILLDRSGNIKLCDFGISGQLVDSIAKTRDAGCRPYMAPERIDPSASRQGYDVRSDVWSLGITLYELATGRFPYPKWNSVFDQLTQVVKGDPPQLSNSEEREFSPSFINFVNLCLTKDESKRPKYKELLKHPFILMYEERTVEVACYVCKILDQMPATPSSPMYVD

[9] = tested on: Tyrosine-protein kinase ABL1 (Homo sapiens), P00519 [M351T]; experiment: Inhibition of human Abl M351T mutant at 10 uM after 60 mins by TR-FRET assay; values are per cent of control
[10] = molecular target: Rho-associated protein kinase 2 (Rattus norvegicus) (UniProt Q62868); experiment: Inhibition of rat ROCK-2 at 10 uM after 60 mins by TR-FRET assay; values are per cent of control
[11] = molecular target: Inhibitor of nuclear factor kappa-B kinase subunit beta (Homo sapiens) (UniProt O14920); experiment: Inhibition of human IKK-beta at 10 uM after 60 mins by TR-FRET assay; values are per cent of control
[12] = molecular target: Ephrin type-A receptor 2 (Homo sapiens) (UniProt P29317); experiment: Inhibition of human EphA2 at 10 uM after 60 mins by TR-FRET assay; values are per cent of control
[13] = tested on: Mast/stem cell growth factor receptor Kit (Homo sapiens), P10721 [D816H]; experiment: Inhibition of human c-Kit D816H mutant at 10 uM after 60 mins by TR-FRET assay; values are per cent of control
Sequence of Mast/stem cell growth factor receptor Kit (Homo sapiens), P10721 [D816H] (P10721 whole entry D816H): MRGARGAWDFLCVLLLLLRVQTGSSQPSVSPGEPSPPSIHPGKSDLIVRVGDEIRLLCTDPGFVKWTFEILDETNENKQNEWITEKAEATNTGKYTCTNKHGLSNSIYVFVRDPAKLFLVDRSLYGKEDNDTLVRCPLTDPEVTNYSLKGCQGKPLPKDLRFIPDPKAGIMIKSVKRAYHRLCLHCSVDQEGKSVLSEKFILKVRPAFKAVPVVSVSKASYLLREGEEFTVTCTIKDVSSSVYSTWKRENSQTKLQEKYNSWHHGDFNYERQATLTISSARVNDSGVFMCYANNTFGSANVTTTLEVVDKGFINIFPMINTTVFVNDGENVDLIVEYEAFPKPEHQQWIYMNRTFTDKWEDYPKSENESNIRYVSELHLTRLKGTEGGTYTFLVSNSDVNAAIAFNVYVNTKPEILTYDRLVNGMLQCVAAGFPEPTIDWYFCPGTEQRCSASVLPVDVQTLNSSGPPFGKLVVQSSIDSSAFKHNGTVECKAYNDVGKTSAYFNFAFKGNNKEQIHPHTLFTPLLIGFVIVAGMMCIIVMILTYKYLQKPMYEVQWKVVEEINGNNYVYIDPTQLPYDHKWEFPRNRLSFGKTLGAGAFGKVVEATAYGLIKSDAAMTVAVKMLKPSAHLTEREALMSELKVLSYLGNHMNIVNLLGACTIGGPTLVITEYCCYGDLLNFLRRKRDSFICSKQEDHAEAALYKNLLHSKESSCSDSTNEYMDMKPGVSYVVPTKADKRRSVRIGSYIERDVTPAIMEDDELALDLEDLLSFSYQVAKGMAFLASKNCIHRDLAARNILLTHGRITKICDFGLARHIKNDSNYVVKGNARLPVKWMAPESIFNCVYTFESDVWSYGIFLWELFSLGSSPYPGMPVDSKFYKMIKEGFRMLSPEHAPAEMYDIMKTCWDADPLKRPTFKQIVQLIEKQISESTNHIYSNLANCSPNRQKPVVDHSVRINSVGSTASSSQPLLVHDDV

[14] = molecular target: Serine/threonine-protein kinase mTOR (Homo sapiens) (UniProt P42345); experiment: Inhibition of human mTOR at 10 uM after 60 mins by TR-FRET assay; details: values are per cent of control
[15] = molecular target: Serine/threonine-protein kinase PLK2 (Homo sapiens) (UniProt Q9NYY3); experiment: Inhibition of human Snk at 10 uM after 60 mins by TR-FRET assay; details: values are per cent of control
[16] = tested on: Proto-oncogene tyrosine-protein kinase Src (Homo sapiens), P12931 [T341M]; experiment: Inhibition of human Src T341M mutant at 10 uM after 60 mins by TR-FRET assay; values are per cent of control
[17] = molecular target: Interleukin-1 receptor-associated kinase 1 (Homo sapiens) (UniProt P51617); experiment: Inhibition of human IRAK1 at 10 uM after 60 mins by TR-FRET assay; details: values are per cent of control
[18] = molecular target: cAMP-dependent protein kinase catalytic subunit PRKX (Homo sapiens) (UniProt P51817); experiment: Inhibition of human PrKX at 10 uM after 60 mins by TR-FRET assay; values are per cent of control
[19] = molecular target: Tyrosine-protein kinase ABL2 (Homo sapiens) (UniProt P42684); experiment: Inhibition of human Arg at 10 uM after 60 mins by TR-FRET assay; values are per cent of control
[20] = tested on: Mitogen-activated protein kinase 14 (Homo sapiens), Q16539 [T106M]; experiment: Inhibition of human SAPK2a T106M mutant at 10 uM after 60 mins by TR-FRET assay; details: values are per cent of control
[21] = molecular target: Mitogen-activated protein kinase kinase kinase 5 (Homo sapiens) (UniProt Q99683); experiment: Inhibition of human ASK1 at 10 uM after 60 mins by TR-FRET assay; values are per cent of control
[22] = molecular target: Serine/threonine-protein kinase PAK 6 (Homo sapiens) (UniProt Q9NQU5); experiment: Inhibition of human PAK6 at 10 uM after 60 mins by TR-FRET assay; values are per cent of control
[23] = molecular target: Ephrin type-A receptor 7 (Homo sapiens) (UniProt Q15375); experiment: Inhibition of human EphA7 at 10 uM after 60 mins by TR-FRET assay; values are per cent of control
Sequence of Ephrin type-A receptor 7 (Homo sapiens) (Q15375 28-998 limits assumed): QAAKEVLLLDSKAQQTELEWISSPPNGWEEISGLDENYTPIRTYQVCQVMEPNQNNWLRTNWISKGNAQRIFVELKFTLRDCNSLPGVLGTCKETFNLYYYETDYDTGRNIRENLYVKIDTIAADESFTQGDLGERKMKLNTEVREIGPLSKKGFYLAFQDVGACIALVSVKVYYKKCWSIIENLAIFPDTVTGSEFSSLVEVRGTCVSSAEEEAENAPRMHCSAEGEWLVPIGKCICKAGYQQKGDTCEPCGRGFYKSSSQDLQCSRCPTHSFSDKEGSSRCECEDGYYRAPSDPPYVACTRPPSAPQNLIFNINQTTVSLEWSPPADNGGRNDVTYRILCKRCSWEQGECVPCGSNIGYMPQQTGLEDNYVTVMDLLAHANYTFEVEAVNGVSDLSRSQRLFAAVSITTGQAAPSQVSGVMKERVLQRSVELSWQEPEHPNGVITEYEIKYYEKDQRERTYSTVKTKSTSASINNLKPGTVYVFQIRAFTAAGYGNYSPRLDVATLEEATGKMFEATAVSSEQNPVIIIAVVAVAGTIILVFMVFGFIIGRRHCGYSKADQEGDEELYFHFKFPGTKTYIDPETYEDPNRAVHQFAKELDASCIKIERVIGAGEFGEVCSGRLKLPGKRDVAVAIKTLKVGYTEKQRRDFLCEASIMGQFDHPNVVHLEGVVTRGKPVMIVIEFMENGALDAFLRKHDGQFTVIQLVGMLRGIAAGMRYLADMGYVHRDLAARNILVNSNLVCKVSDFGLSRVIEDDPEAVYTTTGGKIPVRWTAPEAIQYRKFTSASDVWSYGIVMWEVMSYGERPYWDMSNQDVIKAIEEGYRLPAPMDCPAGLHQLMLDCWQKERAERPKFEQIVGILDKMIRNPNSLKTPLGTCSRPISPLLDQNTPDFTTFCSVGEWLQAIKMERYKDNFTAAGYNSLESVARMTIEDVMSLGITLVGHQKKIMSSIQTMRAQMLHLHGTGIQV

[24] = molecular target: Serine/threonine-protein kinase Nek11 (Homo sapiens) (UniProt Q8NG66); experiment: Inhibition of human NEK11 at 10 uM after 60 mins by TR-FRET assay; values are per cent of control
[25] = molecular target: Serine/threonine-protein kinase WNK3 (Homo sapiens) (UniProt Q9BYP7); experiment: Inhibition of human WNK3 at 10 uM after 60 mins by TR-FRET assay; values are per cent of control
[26] = molecular target: Protein kinase C theta type (Homo sapiens) (UniProt Q04759); experiment: Inhibition of human PKCtheta at 10 uM after 60 mins by TR-FRET assay; values are per cent of control
[27] = molecular target: Serine/threonine-protein kinase D1 (Homo sapiens) (UniProt Q15139); experiment: Inhibition of human PKCmu at 10 uM after 60 mins by TR-FRET assay; values are per cent of control
Sequence of Serine/threonine-protein kinase D1 (Homo sapiens) (Q15139 whole entry): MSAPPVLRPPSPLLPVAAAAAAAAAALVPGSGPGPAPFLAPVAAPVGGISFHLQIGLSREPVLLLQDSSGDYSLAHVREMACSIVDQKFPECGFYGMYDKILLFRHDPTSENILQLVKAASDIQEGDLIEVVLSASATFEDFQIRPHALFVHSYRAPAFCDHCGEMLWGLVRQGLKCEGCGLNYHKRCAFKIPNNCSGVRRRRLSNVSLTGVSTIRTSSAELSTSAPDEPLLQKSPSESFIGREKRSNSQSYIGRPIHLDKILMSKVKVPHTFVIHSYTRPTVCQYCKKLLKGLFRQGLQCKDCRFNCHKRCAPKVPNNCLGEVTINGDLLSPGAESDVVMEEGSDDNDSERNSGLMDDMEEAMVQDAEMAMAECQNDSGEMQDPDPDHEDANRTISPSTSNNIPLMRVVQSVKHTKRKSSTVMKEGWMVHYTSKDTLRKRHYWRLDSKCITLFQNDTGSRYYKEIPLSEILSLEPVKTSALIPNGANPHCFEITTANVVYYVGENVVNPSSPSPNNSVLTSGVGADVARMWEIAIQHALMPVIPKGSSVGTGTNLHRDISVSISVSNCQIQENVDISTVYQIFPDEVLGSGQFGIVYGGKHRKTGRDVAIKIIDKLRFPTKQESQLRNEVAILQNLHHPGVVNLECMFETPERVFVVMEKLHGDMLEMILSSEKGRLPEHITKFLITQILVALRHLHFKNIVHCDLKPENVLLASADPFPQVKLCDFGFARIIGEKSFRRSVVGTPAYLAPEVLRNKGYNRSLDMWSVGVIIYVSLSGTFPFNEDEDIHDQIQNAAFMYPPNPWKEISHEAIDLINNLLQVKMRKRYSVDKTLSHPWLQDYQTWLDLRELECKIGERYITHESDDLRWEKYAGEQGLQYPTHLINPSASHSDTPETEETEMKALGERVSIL

Sequence of Tyrosine-protein kinase CSK (Homo sapiens) (P41240 2-450 limits assumed): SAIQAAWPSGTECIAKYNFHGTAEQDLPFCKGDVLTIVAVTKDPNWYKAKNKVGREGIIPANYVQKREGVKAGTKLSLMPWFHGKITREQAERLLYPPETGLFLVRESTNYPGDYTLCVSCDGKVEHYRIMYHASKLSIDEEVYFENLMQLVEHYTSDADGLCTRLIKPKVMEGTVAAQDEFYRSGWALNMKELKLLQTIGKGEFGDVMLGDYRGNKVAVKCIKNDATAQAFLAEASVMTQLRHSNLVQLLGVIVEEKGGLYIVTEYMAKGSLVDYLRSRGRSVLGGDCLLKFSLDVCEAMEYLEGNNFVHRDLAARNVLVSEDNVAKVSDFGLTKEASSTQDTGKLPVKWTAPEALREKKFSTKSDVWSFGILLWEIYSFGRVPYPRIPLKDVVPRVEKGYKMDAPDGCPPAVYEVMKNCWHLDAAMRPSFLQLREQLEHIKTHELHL

## S=c1[nH]nc(-c2ccncc2)n1-c1ccc2ccccc2c1
[1]
  residual activity: 98%
[2]
  residual activity: 100%
[3]
  residual activity: 114%
Rattus norvegicus
  residual activity: 110%
[4]
  residual activity: 115%
[5]
  residual activity: 136%
[6]
  residual activity: 90%
[7]
  residual activity: 94%
[8]
  residual activity: 106%
[9]
  residual activity: 109%
[10]
  residual activity: 101%
[11]
  residual activity: 94%
[12]
  residual activity: 102%
[13]
  residual activity: 114%
[14]
  residual activity: 98%
[15]
  residual activity: 113%
[16]
  residual activity: 113%
[17]
  residual activity: 113%
[18]
  residual activity: 134%
[19]
  residual activity: 109%
[20]
  residual activity: 104%
[21]
  residual activity: 102%
[22]
  residual activity: 103%
[23]
  residual activity: 65%
[24]
  residual activity: 126%
[25]
  residual activity: 100%
[26]
  residual activity: 114%
[27]
  residual activity: 104%
